Experiments:
BXPC-3 cells = assay: qPCR and immunoblotting of PD-L1 and MHC-I in BXPC-3 cells; format: cell-based, human; details: MIFE 20 μM (qPCR) or indicated doses (immunoblot), 72 h
Source text: The male PDAC cell lines HY24409 and HY24160 and the female PDAC cell line HY19636 were established from KPC mice (p48-Cre; Kras^LSL-G12D/+; Trp53^loxP/+) that were backcrossed to a C57BL/6 background (purity: ˜ 98%). (See Bardeesy, N., et al. supra). The human PDAC cell lines SU86.86 ([…]), SW1990 ([…]), BXPC-3 ([…]), Miapaca-2 ([…]), Capan-1 ([…]), ASPC-1 ([…]), Hs766T ([…]), Colo357/FG ([…]), L3.6PL ([…]), Panc28 ([…]), Capan-2 ([…]), CF-Pac-1 ([…]), Panc3 (sex unknown), Panc1 ([…]), Panc48 (sex unknown), and HPAC ([…]) were from Mien-Chie Hung's lab stock. The HY24409, HY24160, HY19636, SU86.86, SW1990, and Hs766T cell lines were cultured in RPMI 1640 (Corning, 10-041-CV) supplemented with 10% fetal bovine serum (FBS) (Gibco, 10438-034) and 1% penicillin/streptomycin (Sigma, P4333). The BXPC-3, Miapaca-2, Capan-1, ASPC-1, Colo357/FG, L3.6PL, Panc28, Capan-2, CF-Pac-1, Panc3, Panc1, Panc48, and HPAC cell lines were cultured in DMEM/F-12 (Corning, 10-092-CV) supplemented with 10% FBS and 1% penicillin/streptomycin. Cells were grown in a humidified incubator with 5% CO2 at 37° C., and low-passage stocks were maintained in a centralized lab cell bank. Short tandem repeat profiling and mycoplasma tests were done by the Cytogenetics and Cell Authentication Core at MD Anderson Cancer Center. […]

HY24409 cells [1] = assay: qPCR and flow cytometry of PD-L1, MHC-I and B2M in HY24409 cells; format: cell-based, mouse; details: MIFE 20 μM, 48 h
Method: (See Bardeesy, N., et al. supra). The human PDAC cell lines SU86.86 ([…]), SW1990 ([…]), BXPC-3 ([…]), Miapaca-2 ([…]), Capan-1 ([…]), ASPC-1 ([…]), Hs766T ([…]), Colo357/FG ([…]), L3.6PL ([…]), Panc28 ([…]), Capan-2 ([…]), CF-Pac-1 ([…]), Panc3 (sex unknown), Panc1 ([…]), Panc48 (sex unknown), and HPAC ([…]) were from Mien-Chie Hung's lab stock. […] The BXPC-3, Miapaca-2, Capan-1, ASPC-1, Colo357/FG, L3.6PL, Panc28, Capan-2, CF-Pac-1, Panc3, Panc1, Panc48, and HPAC cell lines were cultured in DMEM/F-12 (Corning, 10-092-CV) supplemented with 10% FBS and 1% penicillin/streptomycin. Cells were grown in a humidified incubator with 5% CO2 at 37° C., and low-passage stocks were maintained in a centralized lab cell bank. Short tandem repeat profiling and mycoplasma tests were done by the Cytogenetics and Cell Authentication Core at MD Anderson Cancer Center.

[2] = tested on: tumors formed by KPC cell lines (HY24409, HY24160); assay: Tumor growth in immunodeficient NSG mice implanted with KPC cell lines; format: in vivo, mouse; details: mifepristone oral gavage 60 mg kg-1, twice every 3 days
Method: (§1) Orthotopic pancreatic tumor size was determined by MRI. Subcutaneous tumor size was measured with a caliper. […] Animal body weight was measured throughout the study.

[3] = tested on: orthotopic HY24409 tumors; assay: Orthotopic HY24409 pancreatic tumors in C57BL/6 mice; format: in vivo, mouse
Method: as §1

HY24409 cells [4] = assay: Chemokine array of conditioned medium; format: cell-based, mouse; details: mifepristone 20 μM, 48 hours
Method: Chemokine array was performed with conditioned medium from HY24409 cells treated with vehicle or mifepristone (20 μM, 48 hours) using the Proteome Profiler Mouse Chemokine Array Kit (R&D system, ARY020) following the manufacturer's instructions.

CC#C[C@]1(O)CC[C@H]2[C@@H]3CCC4=CC(=O)CCC4=C3[C@@H](c3ccc(N(C)C)cc3)C[C@@]21C [mifepristone]
MHC-I at both mRNA and protein levels (BXPC-3 cells): significantly upregulated | PD-L1 at both mRNA and protein levels (BXPC-3 cells): downregulated | surface PD-L1 levels (HY24409 cells [1]; flow cytometry): decreased | surface protein levels of MHC-I (H-2K^b) and B2M (HY24409 cells [1]; flow cytometry): increased | MHC-I and B2M mRNA levels (HY24409 cells [1]; qPCR): increase | PD-L1 mRNA levels (HY24409 cells [1]; qPCR): decrease | growth of tumors formed by KPC cell lines [2]: neither mifepristone treatment (FIGS. 11A-11J) nor shRNA-mediated GR knockdown (FIGS. 11K-11N) affected the growth of tumors | body weight ([3]; C57BL/6 mice bearing orthotopic HY24409 tumors, mifepristone 60 mg kg-1): without significant loss of body weight | orthotopic pancreatic tumor volume (magnetic resonance imaging) and weight ([3]; C57BL/6 mice, HY24409, mifepristone oral gavage 60 mg kg-1, twice every 3 days): substantial reductions | tumor growth inhibition upon antibody-mediated depletion of CD8+ T cells ([3]; C57BL/6 mice, orthotopic HY24409, mifepristone plus anti-CD8 antibody): abolished | reduction in tumor weight at the endpoint ([3]; C57BL/6 mice, orthotopic HY24409, vs vehicle or control shRNA): 67.7% | chemokines secreted by HY24409 cells (HY24409 cells [4]): no chemokines that showed a change after mifepristone treatment were found
